Measurements: ChEMBL document CHEMBL4507266, “Data for DCP probe BAY-784” (2021)

Tests used:
[1] = target: Calcium/calmodulin-dependent protein kinase type II subunit delta (Homo sapiens) (UniProt Q13557); details: Compound concentration 1000.0 nM
[2] = target: Calcium/calmodulin-dependent protein kinase kinase 2 (Homo sapiens) (UniProt Q96RR4); details: Compound concentration 1000.0 nM
[3] = target: Citron Rho-interacting kinase (Homo sapiens) (UniProt O14578); details: Compound concentration 1000.0 nM
[4] = target: Casein kinase I isoform gamma-3 (Homo sapiens) (UniProt Q9Y6M4); details: Compound concentration 1000.0 nM
[5] = target: Megakaryocyte-associated tyrosine-protein kinase (Homo sapiens) (UniProt P42679); details: Compound concentration 1000.0 nM
[6] = target: Serine/threonine-protein kinase DCLK2 (Homo sapiens) (UniProt Q8N568); details: Compound concentration 1000.0 nM
[7] = target: Epithelial discoidin domain-containing receptor 1 (Homo sapiens) (UniProt Q08345); details: Compound concentration 1000.0 nM
[8] = target: Ephrin type-A receptor 4 (Homo sapiens) (UniProt P54764); details: Compound concentration 1000.0 nM
[9] = target: Ephrin type-A receptor 5 (Homo sapiens) (UniProt P54756); details: Compound concentration 1000.0 nM
[10] = target: Mitogen-activated protein kinase 15 (Homo sapiens) (UniProt Q8TD08); details: Compound concentration 1000.0 nM
[11] = target: Vascular endothelial growth factor receptor 1 (Homo sapiens) (UniProt P17948); details: Compound concentration 1000.0 nM
[12] = target: Beta-adrenergic receptor kinase 1 (Homo sapiens) (UniProt P25098); details: Compound concentration 1000.0 nM
[13] = target: Tyrosine-protein kinase JAK1 (Homo sapiens) (UniProt P23458); details: Compound concentration 1000.0 nM
[14] = target: Tyrosine-protein kinase JAK2 (Homo sapiens) (UniProt O60674); details: Compound concentration 1000.0 nM
[15] = tested on: Mast/stem cell growth factor receptor Kit (Homo sapiens), P10721 [A829P]; details: Compound concentration 1000.0 nM
[16] = target: Mitogen-activated protein kinase kinase kinase 15 (Homo sapiens) (UniProt Q6ZN16); details: Compound concentration 1000.0 nM
[17] = target: MAP/microtubule affinity-regulating kinase 3 (Homo sapiens) (UniProt P27448); details: Compound concentration 1000.0 nM
[18] = target: Dual specificity mitogen-activated protein kinase kinase 3 (Homo sapiens) (UniProt P46734); details: Compound concentration 1000.0 nM
[19] = target: Serine/threonine-protein kinase mTOR (Homo sapiens) (UniProt P42345); details: Compound concentration 1000.0 nM
[20] = target: Mitogen-activated protein kinase 12 (Homo sapiens) (UniProt P53778); details: Compound concentration 1000.0 nM
[21] = target: Serine/threonine-protein kinase N2 (Homo sapiens) (UniProt Q16513); details: Compound concentration 1000.0 nM
[22] = target: Serine/threonine-protein kinase PLK1 (Homo sapiens) (UniProt P53350); details: Compound concentration 1000.0 nM
[23] = target: Protein kinase C iota type (Homo sapiens) (UniProt P41743); details: Compound concentration 1000.0 nM
[24] = target: Protein kinase C theta type (Homo sapiens) (UniProt Q04759); details: Compound concentration 1000.0 nM
[25] = target: cAMP-dependent protein kinase catalytic subunit PRKX (Homo sapiens) (UniProt P51817); details: Compound concentration 1000.0 nM
[26] = target: Serine/threonine-protein kinase RIO1 (Homo sapiens) (UniProt Q9BRS2); details: Compound concentration 1000.0 nM
[27] = target: Ribosomal protein S6 kinase alpha-3 (Homo sapiens) (UniProt P51812); details: Compound concentration 1000.0 nM
[28] = target: Serine/threonine-protein kinase tousled-like 2 (Homo sapiens) (UniProt Q86UE8); details: Compound concentration 1000.0 nM
[29] = target: Activated CDC42 kinase 1 (Homo sapiens) (UniProt Q07912); details: Compound concentration 1000.0 nM
[30] = target: Serine/threonine-protein kinase WNK4 (Homo sapiens) (UniProt Q96J92); details: Compound concentration 1000.0 nM
[31] = target: Sodium-dependent serotonin transporter (Homo sapiens) (UniProt P31645); details: Compound concentration 10.0 uM
[32] = target: Delta-type opioid receptor (Homo sapiens) (UniProt P41143); details: Compound concentration 10.0 uM
[33] = target: Histamine H1 receptor (Homo sapiens) (UniProt P35367); details: Compound concentration 10.0 uM
[34] = target: Histamine H2 receptor (Homo sapiens) (UniProt P25021); details: Compound concentration 10.0 uM
[35] = target: Histamine H4 receptor (Homo sapiens) (UniProt Q9H3N8); details: Compound concentration 10.0 uM
[36] = target: T1, Alpha-1A adrenergic receptor (Homo sapiens) (UniProt P35348); details: Compound concentration 10.0 uM
T1 sequence (whole entry): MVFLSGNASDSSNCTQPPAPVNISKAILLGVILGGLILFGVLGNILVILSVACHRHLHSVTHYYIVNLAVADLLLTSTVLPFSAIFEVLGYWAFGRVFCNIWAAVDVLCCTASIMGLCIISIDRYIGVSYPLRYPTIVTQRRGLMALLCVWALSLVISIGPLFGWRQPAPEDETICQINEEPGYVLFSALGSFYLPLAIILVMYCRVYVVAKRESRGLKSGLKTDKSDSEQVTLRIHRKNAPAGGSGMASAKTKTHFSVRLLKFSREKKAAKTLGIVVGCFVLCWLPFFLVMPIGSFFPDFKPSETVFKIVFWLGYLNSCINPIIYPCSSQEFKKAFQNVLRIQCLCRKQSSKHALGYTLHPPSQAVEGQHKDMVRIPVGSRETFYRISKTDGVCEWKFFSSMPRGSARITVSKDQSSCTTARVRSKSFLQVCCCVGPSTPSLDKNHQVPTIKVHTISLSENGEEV

Sequence of Citron Rho-interacting kinase (Homo sapiens) (O14578 whole entry, canonical isoform): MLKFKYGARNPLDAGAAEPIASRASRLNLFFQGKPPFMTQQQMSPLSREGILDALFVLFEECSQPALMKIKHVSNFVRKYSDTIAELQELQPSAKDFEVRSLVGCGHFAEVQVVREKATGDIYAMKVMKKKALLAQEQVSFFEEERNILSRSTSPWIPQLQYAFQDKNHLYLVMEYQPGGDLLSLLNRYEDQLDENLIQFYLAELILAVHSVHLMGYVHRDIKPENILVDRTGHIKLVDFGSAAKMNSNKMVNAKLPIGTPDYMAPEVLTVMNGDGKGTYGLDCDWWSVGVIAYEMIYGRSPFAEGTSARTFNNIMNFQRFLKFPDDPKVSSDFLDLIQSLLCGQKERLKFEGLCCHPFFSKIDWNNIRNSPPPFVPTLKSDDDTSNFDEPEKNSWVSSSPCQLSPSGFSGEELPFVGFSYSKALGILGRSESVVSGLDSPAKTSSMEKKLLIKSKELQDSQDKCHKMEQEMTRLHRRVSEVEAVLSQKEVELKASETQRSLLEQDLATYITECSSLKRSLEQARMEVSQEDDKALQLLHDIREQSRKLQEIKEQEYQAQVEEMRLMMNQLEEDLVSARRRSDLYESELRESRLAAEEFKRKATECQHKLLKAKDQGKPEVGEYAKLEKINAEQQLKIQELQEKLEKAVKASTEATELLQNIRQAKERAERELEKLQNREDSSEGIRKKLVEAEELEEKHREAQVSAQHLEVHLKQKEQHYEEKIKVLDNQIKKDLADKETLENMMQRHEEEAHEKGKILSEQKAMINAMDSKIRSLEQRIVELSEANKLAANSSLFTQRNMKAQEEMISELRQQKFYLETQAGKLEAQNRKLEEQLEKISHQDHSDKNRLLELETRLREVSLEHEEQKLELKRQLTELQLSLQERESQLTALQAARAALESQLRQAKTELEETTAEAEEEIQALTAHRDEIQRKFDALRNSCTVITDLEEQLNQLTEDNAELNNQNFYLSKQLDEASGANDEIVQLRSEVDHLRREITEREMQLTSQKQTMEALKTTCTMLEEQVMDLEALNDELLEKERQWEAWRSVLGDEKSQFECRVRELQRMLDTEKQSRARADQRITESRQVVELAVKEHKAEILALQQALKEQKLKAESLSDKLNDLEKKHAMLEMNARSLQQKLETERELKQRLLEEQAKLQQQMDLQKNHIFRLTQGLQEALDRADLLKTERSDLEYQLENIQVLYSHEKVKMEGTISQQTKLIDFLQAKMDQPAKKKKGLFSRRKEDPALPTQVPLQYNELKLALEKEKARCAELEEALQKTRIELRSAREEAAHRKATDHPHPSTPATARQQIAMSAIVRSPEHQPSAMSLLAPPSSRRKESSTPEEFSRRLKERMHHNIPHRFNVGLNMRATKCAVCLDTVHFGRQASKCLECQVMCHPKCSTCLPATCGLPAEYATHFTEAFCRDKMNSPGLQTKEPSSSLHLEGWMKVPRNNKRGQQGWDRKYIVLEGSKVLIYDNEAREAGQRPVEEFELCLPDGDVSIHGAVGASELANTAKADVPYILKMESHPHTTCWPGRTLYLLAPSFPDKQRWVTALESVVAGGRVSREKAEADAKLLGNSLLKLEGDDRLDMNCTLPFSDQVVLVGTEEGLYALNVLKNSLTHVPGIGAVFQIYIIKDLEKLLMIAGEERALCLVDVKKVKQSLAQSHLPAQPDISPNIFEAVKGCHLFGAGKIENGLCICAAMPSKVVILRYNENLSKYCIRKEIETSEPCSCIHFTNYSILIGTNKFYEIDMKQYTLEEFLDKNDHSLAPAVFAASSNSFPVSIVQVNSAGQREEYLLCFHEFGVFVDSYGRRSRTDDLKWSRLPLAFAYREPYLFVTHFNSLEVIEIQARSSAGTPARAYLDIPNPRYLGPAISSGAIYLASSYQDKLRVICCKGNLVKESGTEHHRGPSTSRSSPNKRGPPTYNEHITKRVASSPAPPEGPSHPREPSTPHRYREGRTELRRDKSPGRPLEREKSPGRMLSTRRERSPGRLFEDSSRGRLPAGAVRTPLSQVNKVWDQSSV
Sequence of Protein kinase C theta type (Homo sapiens) (Q04759 whole entry, looked up): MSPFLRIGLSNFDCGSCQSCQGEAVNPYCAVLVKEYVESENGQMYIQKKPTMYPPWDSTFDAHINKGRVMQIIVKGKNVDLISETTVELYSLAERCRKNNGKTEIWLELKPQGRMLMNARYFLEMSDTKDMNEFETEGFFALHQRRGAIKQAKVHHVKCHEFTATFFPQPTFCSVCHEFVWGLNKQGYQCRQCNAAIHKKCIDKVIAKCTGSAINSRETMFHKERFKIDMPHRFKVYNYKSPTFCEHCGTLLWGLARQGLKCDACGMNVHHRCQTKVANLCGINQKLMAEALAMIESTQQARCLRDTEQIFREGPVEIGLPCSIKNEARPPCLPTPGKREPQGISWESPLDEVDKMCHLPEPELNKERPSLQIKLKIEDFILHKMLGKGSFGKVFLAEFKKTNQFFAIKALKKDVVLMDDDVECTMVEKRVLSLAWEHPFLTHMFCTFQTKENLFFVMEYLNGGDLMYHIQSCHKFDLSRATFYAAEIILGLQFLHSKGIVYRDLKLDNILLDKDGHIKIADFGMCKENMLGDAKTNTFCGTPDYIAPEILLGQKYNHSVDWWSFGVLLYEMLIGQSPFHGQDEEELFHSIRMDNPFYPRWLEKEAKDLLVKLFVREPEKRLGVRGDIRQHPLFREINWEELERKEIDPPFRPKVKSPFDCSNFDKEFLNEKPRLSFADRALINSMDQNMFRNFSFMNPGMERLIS
Sequence of Histamine H2 receptor (Homo sapiens) (P25021 whole entry): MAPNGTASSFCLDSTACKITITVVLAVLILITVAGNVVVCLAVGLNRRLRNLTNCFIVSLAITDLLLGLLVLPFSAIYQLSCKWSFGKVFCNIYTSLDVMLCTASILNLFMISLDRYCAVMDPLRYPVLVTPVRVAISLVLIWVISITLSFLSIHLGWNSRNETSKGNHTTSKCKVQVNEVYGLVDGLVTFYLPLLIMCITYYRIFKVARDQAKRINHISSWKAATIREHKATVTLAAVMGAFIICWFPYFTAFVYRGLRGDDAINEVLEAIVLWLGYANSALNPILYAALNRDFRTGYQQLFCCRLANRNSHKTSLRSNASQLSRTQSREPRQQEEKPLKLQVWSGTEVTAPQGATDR
Sequence of Calcium/calmodulin-dependent protein kinase type II subunit delta (Homo sapiens) (Q13557 whole entry): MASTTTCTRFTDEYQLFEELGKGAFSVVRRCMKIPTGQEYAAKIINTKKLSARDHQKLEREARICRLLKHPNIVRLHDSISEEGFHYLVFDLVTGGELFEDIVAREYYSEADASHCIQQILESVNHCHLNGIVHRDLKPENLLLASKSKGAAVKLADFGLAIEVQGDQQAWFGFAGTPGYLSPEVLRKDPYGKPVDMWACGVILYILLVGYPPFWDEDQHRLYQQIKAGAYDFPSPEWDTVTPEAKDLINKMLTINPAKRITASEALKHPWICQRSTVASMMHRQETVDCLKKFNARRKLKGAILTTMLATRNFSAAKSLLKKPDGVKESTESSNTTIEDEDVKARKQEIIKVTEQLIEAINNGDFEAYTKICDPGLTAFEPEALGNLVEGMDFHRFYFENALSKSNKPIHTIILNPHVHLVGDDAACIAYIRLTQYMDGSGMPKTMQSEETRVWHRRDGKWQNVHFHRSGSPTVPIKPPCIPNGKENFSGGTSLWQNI
Sequence of Serine/threonine-protein kinase WNK4 (Homo sapiens) (Q96J92 whole entry): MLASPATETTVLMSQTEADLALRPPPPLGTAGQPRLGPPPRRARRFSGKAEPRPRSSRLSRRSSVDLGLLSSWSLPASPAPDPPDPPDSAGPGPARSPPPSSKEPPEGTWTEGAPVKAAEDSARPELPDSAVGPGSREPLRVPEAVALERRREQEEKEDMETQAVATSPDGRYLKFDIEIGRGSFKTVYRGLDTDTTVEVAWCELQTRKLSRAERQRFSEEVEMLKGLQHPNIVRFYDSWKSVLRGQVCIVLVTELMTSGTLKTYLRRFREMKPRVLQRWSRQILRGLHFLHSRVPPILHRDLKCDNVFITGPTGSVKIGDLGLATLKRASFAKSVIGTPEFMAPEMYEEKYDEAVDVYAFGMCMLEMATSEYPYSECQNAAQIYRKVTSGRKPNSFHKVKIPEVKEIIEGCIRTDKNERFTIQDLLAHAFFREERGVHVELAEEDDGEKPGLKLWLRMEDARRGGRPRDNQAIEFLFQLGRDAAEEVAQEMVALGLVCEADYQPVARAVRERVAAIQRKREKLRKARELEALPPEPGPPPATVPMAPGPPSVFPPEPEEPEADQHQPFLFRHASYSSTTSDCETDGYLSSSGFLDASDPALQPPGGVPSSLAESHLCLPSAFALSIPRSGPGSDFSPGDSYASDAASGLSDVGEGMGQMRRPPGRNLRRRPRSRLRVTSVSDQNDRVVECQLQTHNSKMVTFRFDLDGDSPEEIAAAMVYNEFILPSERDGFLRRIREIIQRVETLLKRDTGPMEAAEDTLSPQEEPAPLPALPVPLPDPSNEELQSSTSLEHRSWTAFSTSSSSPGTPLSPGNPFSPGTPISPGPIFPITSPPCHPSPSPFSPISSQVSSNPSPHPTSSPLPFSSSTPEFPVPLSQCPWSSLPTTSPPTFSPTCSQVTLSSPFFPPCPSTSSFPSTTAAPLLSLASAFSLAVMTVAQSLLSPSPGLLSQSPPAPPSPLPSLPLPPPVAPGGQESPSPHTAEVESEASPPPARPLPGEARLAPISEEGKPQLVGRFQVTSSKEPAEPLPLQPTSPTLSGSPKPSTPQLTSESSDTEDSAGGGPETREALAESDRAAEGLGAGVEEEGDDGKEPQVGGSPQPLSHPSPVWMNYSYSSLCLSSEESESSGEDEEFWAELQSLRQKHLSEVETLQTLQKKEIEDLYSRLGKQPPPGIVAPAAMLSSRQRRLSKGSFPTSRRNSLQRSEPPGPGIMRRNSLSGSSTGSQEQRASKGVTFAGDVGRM

O=C(NCc1ncc(C(F)(F)F)cc1Cl)c1ccc2c(c1)C1(CCS(=O)(=O)CC1)[C@@H](C1CC1)N2S(=O)(=O)c1ccc(F)cc1 [BAY-786]
inactive: residual activity [1] 100% | residual activity [2] 83% | residual activity [3] 84% | residual activity [4] 100% | residual activity [5] 74% | residual activity [6] 100% | residual activity [7] 100% | residual activity [8] 97% | residual activity [9] 77% | residual activity [10] 100% | residual activity [11] 82% | residual activity [12] 80% | residual activity [13] 85% | residual activity [14] 70% | residual activity [15] 67% | residual activity [16] 78% | residual activity [17] 100% | residual activity [18] 73% | residual activity [19] 92% | residual activity [20] 94% | residual activity [21] 68% | residual activity [22] 82% | residual activity [23] 100% | residual activity [24] 95% | residual activity [25] 100% | residual activity [26] 78% | residual activity [27] 57% | residual activity [28] 100% | residual activity [29] 84% | residual activity [30] 100% | inhibition [31] -4.88% | inhibition [32] -2.65% | inhibition [33] 8.01% | inhibition [34] 16.5% | inhibition [35] -6.68% | inhibition [36] 1.7%

O=C(NCc1ncc(C(F)(F)F)cc1Cl)c1ccc2c(c1)C1(CCS(=O)(=O)CC1)[C@H](C1CC1)N2S(=O)(=O)c1ccc(F)cc1 [BAY-784]
inactive: residual activity [1] 100% | residual activity [2] 100% | residual activity [3] 100% | residual activity [4] 100% | residual activity [5] 73% | residual activity [6] 100% | residual activity [7] 100% | residual activity [8] 100% | residual activity [9] 100% | residual activity [10] 100% | residual activity [11] 98% | residual activity [12] 56% | residual activity [13] 86% | residual activity [14] 80% | residual activity [15] 92% | residual activity [16] 96% | residual activity [17] 89% | residual activity [18] 71% | residual activity [19] 100% | residual activity [20] 100% | residual activity [21] 70% | residual activity [22] 86% | residual activity [23] 81% | residual activity [24] 100% | residual activity [25] 88% | residual activity [26] 100% | residual activity [27] 70% | residual activity [28] 100% | residual activity [29] 85% | residual activity [30] 91% | inhibition [31] -5.4% | inhibition [32] -0.34% | inhibition [33] 24.6% | inhibition [34] 14.6% | inhibition [35] -9.53% | inhibition [36] -0.32%
